This passage reports IC50 and Ki results from ChEMBL document CHEMBL5230097, “Structure-based design of covalent inhibitors targeting metallo-β-lactamases” (Eur J Med Chem, 2020).

The nature of assay [1]: Inhibition of Metallo-beta-lactamase NDM-1 (unknown origin) expressed in Escherichia coli BL21 (DE3) assessed as substrate hydrolysis using imipenem as substrate by spectrometric analysis. More on the design: species or system Bacteria.
A short description of assay [2]: Inhibition of metallo-beta-lactamase IMP-1 (unknown origin) expressed in Escherichia coli BL21 (DE3) assessed as substrate hydrolysis using imipenem as substrate by spectrometric analysis. More on the design: species or system Bacteria.
The nature of assay [3]: Inhibition of metallo-beta-lactamase ImiS (unknown origin) expressed in Escherichia coli BL21 (DE3) assessed as substrate hydrolysis using imipenem as substrate by spectrometric analysis. More on the design: species or system Bacteria.
Assay [4] in a line: Inhibition of wild type metallo-beta-lactamase IMP-1 (unknown origin) assessed as inhibition constant using nitrocefin as substrate preincubated with compound followed by substrate addition and measured for 60 sec by spectroscopic analysis. More on the design: species or system Bacteria.
The nature of assay [5]: Inhibition of Metallo-beta-lactamase NDM-1 in Escherichia coli BL21 assessed as inhibition constant using nitrocefin as substrate preincubated for 20 mins followed by substrate and measured after 30 mins by spectrophotometric analysis.
Assay [6] is described as follows: Inhibition of Escherichia coli metallo-beta-lactamase NDM-1 assessed as substrate hydrolysis using cefazolin as substrate preincubated for 12 hrs followed by substrate by UV-Vis spectrophotometric analysis.
Assay [7] is described as follows: Inhibition of Bacillus cereus II metallo-beta-lactamase using nitrocefin as substrate incubated for 5 mins by spectrophotometric analysis.
The nature of assay [8]: Inhibition of Metallo-beta-lactamase NDM-1 in Escherichia coli BL21 (DE3) assessed as substrate hydrolysis using cefazolin as substrate preincubated for 20 hrs followed by substrate by spectrometric analysis.

The term IC50 denotes the point on the concentration scale where inhibition reaches its midpoint. One may read the Ki as a measure of affinity in units of concentration, obtained from inhibition or displacement.

In the case of `S=C(SSC(=S)N1CCCC1)N1CCCC1` [BIS(PYRROLIDINYLTHIOCARBONYL)DISULFIDE], the IC50 in assay [1] was 120 nM; in assay [2], 950 nM; in assay [3] it was 3700 nM. For `O=C(CCS)Oc1c(F)c(F)c(F)c(F)c1F`, in assay [4], the inhibition constant Ki came out at 3450 nM. With `O=c1c2ccccc2[se]n1-c1ccccc1` [EBSELEN], in assay [5], the Ki came to 380 nM. For the compound `O=C(O)C(=O)CBr` [BROMOPYRUVATE], in assay [6], the IC50 turned out to be 2570 nM. As to `CCN(CC)C(=S)SSC(=S)N(CC)CC` [DISULFIRAM], the concentration for half-maximal inhibition (IC50) in assay [1] is 130 nM; in assay [2], 2900 nM; in assay [3], 3600 nM. For `S=C(SSC(=S)N1CCCCC1)N1CCCCC1` [BIS(PIPERIDINYLTHIOCARBONYL)DISULFIDE], the figures for the half-maximal inhibitory concentration (IC50) in assay [1], in assay [2] and in assay [3] were 140 nM, 880 nM and 490 nM, respectively.

On to `CCCCN(CCCC)C(=S)SSC(=S)N(CCCC)CCCC`, for which the values for the 50% inhibitory concentration (IC50) in assay [1], in assay [2] and in assay [3] were 260 nM, 530 nM and 1800 nM, respectively. `O=C(CCSC(=O)CCS)Oc1c(F)c(F)c(F)c(F)c1F`: the inhibition constant (Ki) in assay [4] was 420 nM. Turning to `C[C@@H](NC(=O)c1ccccc1)C(=O)SCC(=O)O`, in assay [7], the concentration for half-maximal inhibition (IC50) is 645000 nM. Turning to `S=C(SSC(=S)N(Cc1ccccc1)Cc1ccccc1)N(Cc1ccccc1)Cc1ccccc1` [BIS(DIBENZYLAMINETHIOCARBONYL)DISULFIDE], the results for the IC50 in assay [1], in assay [2] and in assay [3] were 320 nM, 1700 nM and 2600 nM, respectively. `O=c1c2ccccc2sn1-c1ccccc1`: the half-inhibitory concentration (IC50) in assay [8] turned out to be 160 nM. Take `C[C@@H](NC(=O)Cc1ccccc1)C(=O)SCC(=O)O`: half-maximal inhibition in assay [7] (IC50) was put at 479000 nM.
